From ChEMBL document CHEMBL6083185, “Unraveling the future: Innovative design strategies and emerging challenges in HER2-targeted tyrosine kinase inhibitors for cancer therapy” (Eur J Med Chem, 2024)

Assays:
[1] = system: BaF3; assay: Antiproliferative activity against mouse BaF3 cells harboring HER2 YVMA mutant measured for 24 hrs by CellTiter-Glo assay; assay type: functional, cell-based; details: BaF3, 24 h
[2] = target: T1, Epidermal growth factor receptor (Homo sapiens, UniProt P00533); assay: Inhibition of human wild type EGFR using PolyEY as substrate pre-incubated for 30 mins followed by substrate addition and measured for 60 mins by spectrophotometric analysis
T1 sequence (P00533 whole entry): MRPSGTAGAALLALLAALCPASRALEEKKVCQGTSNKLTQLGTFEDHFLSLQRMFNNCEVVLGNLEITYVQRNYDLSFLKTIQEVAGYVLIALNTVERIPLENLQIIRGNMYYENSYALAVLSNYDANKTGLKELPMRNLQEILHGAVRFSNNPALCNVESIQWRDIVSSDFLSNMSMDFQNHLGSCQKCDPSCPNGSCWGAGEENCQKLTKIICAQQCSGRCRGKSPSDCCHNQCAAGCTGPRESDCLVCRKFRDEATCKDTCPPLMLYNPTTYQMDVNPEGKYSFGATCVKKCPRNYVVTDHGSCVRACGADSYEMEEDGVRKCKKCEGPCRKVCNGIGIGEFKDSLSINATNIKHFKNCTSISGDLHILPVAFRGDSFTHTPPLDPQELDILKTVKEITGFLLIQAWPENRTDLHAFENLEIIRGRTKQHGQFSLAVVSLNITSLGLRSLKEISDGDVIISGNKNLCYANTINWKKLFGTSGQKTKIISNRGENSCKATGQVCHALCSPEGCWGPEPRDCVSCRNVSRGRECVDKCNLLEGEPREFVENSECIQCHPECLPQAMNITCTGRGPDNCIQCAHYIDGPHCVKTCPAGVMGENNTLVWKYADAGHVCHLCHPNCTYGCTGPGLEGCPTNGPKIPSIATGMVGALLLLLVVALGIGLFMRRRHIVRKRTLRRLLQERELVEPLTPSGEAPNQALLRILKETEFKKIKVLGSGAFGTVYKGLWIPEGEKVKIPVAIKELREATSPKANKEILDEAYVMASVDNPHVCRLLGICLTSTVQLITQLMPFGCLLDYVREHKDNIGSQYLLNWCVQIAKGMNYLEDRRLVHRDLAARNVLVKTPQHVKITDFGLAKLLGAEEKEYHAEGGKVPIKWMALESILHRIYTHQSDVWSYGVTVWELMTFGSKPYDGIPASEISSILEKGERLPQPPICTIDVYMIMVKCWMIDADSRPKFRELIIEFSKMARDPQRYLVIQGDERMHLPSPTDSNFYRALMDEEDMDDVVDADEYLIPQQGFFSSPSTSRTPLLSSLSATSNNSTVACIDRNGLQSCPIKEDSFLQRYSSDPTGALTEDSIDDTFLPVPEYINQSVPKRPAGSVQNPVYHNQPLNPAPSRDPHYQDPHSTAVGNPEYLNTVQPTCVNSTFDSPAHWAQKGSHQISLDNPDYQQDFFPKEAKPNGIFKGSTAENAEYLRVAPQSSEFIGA

[3] = target: T2, Receptor tyrosine-protein kinase erbB-2 (Homo sapiens, UniProt P04626); assay: Inhibition of human wild type HER2 using PolyEY as substrate pre-incubated for 30 mins followed by substrate addition and measured for 60 mins by spectrophotometric analysis
T2 sequence (P04626 whole entry): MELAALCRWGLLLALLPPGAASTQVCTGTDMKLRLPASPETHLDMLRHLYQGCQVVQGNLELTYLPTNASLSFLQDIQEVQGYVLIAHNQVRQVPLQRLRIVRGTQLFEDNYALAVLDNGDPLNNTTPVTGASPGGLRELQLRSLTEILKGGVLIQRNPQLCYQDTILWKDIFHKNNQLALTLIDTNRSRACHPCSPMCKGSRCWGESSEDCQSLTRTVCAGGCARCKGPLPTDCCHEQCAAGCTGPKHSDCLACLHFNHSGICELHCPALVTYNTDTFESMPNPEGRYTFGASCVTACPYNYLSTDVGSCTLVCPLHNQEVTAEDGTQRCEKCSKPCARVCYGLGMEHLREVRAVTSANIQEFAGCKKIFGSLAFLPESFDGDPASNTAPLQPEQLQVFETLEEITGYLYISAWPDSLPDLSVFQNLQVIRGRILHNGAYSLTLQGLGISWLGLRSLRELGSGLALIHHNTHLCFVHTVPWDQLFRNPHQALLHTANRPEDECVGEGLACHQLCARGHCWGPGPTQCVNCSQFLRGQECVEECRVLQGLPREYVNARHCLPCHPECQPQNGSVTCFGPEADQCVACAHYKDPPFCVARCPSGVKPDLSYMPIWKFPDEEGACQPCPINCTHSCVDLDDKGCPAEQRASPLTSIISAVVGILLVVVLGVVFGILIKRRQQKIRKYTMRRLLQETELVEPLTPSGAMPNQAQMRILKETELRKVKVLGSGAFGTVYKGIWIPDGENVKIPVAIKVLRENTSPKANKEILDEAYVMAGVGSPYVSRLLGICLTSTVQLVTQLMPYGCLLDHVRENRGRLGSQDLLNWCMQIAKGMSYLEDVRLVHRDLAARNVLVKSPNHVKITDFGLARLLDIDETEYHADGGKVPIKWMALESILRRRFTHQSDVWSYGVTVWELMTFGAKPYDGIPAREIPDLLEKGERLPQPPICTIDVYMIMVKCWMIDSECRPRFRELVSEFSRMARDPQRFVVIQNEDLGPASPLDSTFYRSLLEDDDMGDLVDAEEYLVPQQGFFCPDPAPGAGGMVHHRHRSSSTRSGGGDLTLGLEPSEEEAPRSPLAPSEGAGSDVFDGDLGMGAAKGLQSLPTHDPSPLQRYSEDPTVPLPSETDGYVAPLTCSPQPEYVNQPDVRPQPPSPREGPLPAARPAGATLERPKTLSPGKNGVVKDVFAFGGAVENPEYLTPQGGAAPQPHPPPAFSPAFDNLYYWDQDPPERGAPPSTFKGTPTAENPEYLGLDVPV

[4] = target: T2, Receptor tyrosine-protein kinase erbB-2; assay: Inhibition of HER2 (unknown origin)
[5] = Antiproliferative activity against human NCI-H1975 cells harboring EGFR L858R mutant assessed as reduction in cell viability measured after 72 hrs by MTT assay; assay type: functional, cell-based; details: NCI-H1975, 72 h
[6] = target: T1, Epidermal growth factor receptor
Description: Inhibition of EGFR (unknown origin)

[7] = system: SK-BR-3; assay: Antiproliferative activity against human SK-BR-3 cells assessed as reduction in cell growth incubated for 72 hrs by MTT assay; assay type: functional, cell-based; details: SK-BR-3, 72 h
[8] = system: BT-474; assay: Antiproliferative activity against human BT-474 cells; assay type: functional, cell-based
[9] = system: NCI-N87; assay: Antiproliferative activity against human NCI-N87 cells; assay type: functional, cell-based
[10] = target: T2, Receptor tyrosine-protein kinase erbB-2; assay: Inhibition of wild-type HER2 phosphorylation in human BT-474 cells; assay type: cell-based
[11] = target: Receptor tyrosine-protein kinase erbB-2 (Homo sapiens, UniProt P04626, D769Y); assay: Inhibition of HER2 D769Y mutant (unknown origin)
Chain of Receptor tyrosine-protein kinase erbB-2 (Homo sapiens, UniProt P04626, D769Y) (P04626 23-1255 D769Y limits assumed): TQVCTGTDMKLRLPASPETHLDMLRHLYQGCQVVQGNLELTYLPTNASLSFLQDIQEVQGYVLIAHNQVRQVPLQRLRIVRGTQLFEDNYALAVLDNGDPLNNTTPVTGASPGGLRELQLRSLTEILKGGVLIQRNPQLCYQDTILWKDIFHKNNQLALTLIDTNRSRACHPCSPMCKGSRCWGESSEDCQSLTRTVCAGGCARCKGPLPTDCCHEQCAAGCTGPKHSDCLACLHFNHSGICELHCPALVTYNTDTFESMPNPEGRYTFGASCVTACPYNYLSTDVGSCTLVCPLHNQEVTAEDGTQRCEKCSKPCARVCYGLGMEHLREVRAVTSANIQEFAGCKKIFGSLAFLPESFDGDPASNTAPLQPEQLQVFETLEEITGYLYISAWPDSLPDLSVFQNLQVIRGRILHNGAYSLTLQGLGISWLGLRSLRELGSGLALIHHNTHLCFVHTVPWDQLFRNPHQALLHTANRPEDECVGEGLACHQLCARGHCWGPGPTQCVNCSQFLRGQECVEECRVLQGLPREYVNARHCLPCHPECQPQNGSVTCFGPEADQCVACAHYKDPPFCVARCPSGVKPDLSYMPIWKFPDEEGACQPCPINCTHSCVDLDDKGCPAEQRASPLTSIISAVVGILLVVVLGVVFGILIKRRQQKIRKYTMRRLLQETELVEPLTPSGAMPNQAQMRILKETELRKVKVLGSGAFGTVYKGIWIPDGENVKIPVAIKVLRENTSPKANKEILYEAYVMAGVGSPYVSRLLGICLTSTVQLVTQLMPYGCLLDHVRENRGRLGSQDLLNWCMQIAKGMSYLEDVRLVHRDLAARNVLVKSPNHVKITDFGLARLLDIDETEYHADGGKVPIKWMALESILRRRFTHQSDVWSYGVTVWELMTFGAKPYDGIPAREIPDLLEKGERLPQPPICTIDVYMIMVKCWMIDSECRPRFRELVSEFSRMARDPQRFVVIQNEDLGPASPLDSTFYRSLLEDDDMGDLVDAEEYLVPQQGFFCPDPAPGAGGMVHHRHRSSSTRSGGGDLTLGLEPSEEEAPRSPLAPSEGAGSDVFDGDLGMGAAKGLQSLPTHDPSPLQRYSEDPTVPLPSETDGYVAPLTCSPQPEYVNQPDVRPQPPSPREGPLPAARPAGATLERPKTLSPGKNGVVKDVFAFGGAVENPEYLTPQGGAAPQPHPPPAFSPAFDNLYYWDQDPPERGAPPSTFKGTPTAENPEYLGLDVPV

[12] = Metabolic stability in human liver microsomes assessed as half life; assay type: ADME, Microsome
[13] = target: Receptor tyrosine-protein kinase erbB-2 (Homo sapiens, UniProt P04626, D769H); assay: Inhibition of HER2 D769H mutant (unknown origin)
Chain of Receptor tyrosine-protein kinase erbB-2 (Homo sapiens, UniProt P04626, D769H) (P04626 23-1255 D769H limits assumed): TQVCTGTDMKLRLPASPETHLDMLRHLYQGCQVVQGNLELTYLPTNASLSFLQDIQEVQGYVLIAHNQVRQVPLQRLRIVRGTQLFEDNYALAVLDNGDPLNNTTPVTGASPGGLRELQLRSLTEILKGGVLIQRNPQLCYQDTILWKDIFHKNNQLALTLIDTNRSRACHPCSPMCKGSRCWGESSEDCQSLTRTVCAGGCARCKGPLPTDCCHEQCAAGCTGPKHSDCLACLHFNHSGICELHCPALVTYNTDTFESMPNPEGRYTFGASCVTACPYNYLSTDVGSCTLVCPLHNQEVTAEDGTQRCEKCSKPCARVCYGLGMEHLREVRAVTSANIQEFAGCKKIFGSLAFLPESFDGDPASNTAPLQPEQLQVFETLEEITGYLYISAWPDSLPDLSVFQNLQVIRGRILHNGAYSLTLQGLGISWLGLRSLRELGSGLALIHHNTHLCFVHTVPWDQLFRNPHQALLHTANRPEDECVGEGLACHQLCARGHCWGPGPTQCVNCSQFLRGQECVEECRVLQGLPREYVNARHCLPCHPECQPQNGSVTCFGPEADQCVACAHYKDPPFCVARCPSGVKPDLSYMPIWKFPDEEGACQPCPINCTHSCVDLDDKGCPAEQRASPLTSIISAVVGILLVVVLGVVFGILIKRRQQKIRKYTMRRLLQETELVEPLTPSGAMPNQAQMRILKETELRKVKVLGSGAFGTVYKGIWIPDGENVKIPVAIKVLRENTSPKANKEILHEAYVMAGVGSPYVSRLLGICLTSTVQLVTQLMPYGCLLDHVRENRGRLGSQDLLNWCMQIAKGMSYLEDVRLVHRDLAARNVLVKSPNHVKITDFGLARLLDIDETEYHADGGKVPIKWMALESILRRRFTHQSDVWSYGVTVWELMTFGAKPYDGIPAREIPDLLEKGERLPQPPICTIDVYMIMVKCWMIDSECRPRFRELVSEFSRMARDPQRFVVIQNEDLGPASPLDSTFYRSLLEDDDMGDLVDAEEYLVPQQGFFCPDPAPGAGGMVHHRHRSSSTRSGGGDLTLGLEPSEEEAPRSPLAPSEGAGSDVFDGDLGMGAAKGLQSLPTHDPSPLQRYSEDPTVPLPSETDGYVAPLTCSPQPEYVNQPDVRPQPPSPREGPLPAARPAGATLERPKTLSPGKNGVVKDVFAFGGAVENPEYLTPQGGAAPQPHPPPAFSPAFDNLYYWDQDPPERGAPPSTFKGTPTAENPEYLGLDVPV

[14] = Clearance in rat; assay type: ADME; details: in vivo
[15] = Half life in human; assay type: ADME
[16] = target: T2, Receptor tyrosine-protein kinase erbB-2; assay: Inhibition of flag-tagged HER2 (unknown origin) extracted from Escherichia coli
[17] = system: BT-474; assay: Antiproliferative activity against human BT-474 cells assessed as reduction in cell growth; assay type: functional, cell-based
[18] = system: NCI-N87; assay: Antiproliferative activity against human NCI-N87 cells assessed as cell growth measured for 48 hrs by MTT assay; assay type: functional, cell-based; details: NCI-N87, 48 h
[19] = Metabolic stability in human liver microsomes assessed as half life incubated for 60 mins by LC-MS/MS analysis; assay type: ADME, Microsome

| Structure (SMILES) | IC50 [4] [nM] | IC50 [6] [nM] | also measured |
| --- | --- | --- | --- |
| C=CC(=O)N1CCN(c2ncc3ncnc(Nc4ccc(Oc5ccccc5)c(C)c4)c3n2)CC1 |  |  | IC50 [1]: 12 nM; IC50 [2]: 200 nM; IC50 [3]: 12 nM |
| C=CC(=O)N1CCN(C(=O)Oc2cc3c(Nc4cccc(Cl)c4F)ncnc3cc2OC)[C@H](C)C1 | 152 |  |  |
| CCOCCOc1cc2ncnc(Nc3ccc(OCc4ccccn4)c(Cl)c3)c2cc1NC(=O)/C=C/CN(C)C |  | 1.01 | IC50 [5]: 60.6 nM |
| Cc1ccc2cccc(Oc3ccc(Nc4ncnc5ccc(NC6CCCC6)cc45)cc3C)c2n1 | 8 | 155 | IC50 [7]: 238 nM |
| COc1ccc2c(Nc3ccc(Oc4cccc5ccc(C)nc45)c(C)c3)ncnc2c1 | 239 | 166 |  |
| CCOc1cc2ncc(C#N)c(Nc3ccc(Oc4ccn5ncnc5c4)c(C)c3)c2cc1NC(=O)/C=C/CN(C)C | 2.21 | 7.04 |  |
| CCOc1cc2ncnc(Nc3ccc(Oc4ccn5ncnc5c4)c(C)c3)c2cc1NC(=O)/C=C/[C@H]1CCCN1C | 1.67 | 1.36 | IC50 [8]: 2.13 nM; IC50 [9]: 1.12 nM |
| Cc1cc(Nc2ncnc3cccc(O[C@H]4CCN(C)CC4(F)F)c23)ccc1Oc1ccn2ncnc2c1 |  |  | IC50 [10]: 5.8 nM |
| C=CC(=O)N1C[C@@H]2C[C@H]1CN2C(=O)Oc1cc2c(Nc3ccc(Cl)c(Cl)c3F)ncnc2cc1OC | 6.07 |  |  |
| Cc1cc(Nc2ncnc3cccc(OC4CCN(C)CC4)c23)ccc1Oc1ccn2ncnc2c1 |  |  | IC50 [10]: 18 nM |
| C=CC(=O)N1CCC(Oc2cc3c(Nc4ccc(Cl)c(Cl)c4F)ncnc3cc2OC)CC1 [POZIOTINIB] | 1.69 |  |  |
| CCOc1cc2ncnc(Nc3ccc(Oc4ccn5ncnc5c4)c(C)c3)c2cc1NC(=O)/C(F)=C/[C@H]1CCCN1C [SPH-5030] | 3.51 | 8.13 | IC50 [8]: 2.01 nM; IC50 [11]: < 1 nM; half-life [12]: 9.24 h; IC50 [13]: < 1 nM; IC50 [9]: 1.09 nM |
| C=CC(=O)N1CCN(c2ncc3ncnc(Nc4ccc(Oc5ccc6c(c5)ncn6C)c(C)c4)c3n2)CC1 |  |  | IC50 [1]: 16 nM; IC50 [2]: > 5 nM; IC50 [3]: 16 nM |
| COCCOc1ccc2ncnc(Nc3ccc(Oc4cccc5ccc(C)nc45)c(C)c3)c2c1 | 42 | 143 |  |
| Cc1cc(Nc2ncnc3ccc(NC(=O)/C=C/[C@H]4CCCN4C)cc23)ccc1Oc1cc2ncnn2cn1 | 1.4 | 1.19 |  |
| O=C(Nc1ccc2ncnc(Nc3ccc(OCc4cccc(F)c4)c(Cl)c3)c2c1)c1ccc(CNCCO)cc1 | 12 |  | IC50 [8]: 200 nM; clearance [14]: ≤ 9.6 mL/min/kg |
| COc1cc2ncnc(Nc3ccc(Oc4cccc5ccc(C)nc45)c(C)c3)c2cc1OC | 14 | 11 |  |
| Cc1ccc2cccc(Oc3ccc(Nc4ncnc5ccc(NC(=O)C6CCCC6)cc45)cc3C)c2n1 | 314 | 2010 |  |
| C=CC(=O)Nc1cccc(-c2c(-c3ccc(N4CCN(C)CC4)cc3)[nH]c3ncnc(Nc4ccc(OCc5ccccn5)c(Cl)c4)c23)c1 | ~2.3 |  |  |
| CN1CCN(CCCOc2ccc3ncnc(Nc4ccc(OCc5cccc(F)c5)c(Cl)c4)c3c2)CC1 |  |  | IC50 [8]: 80 nM; half-life [15]: 0.957 h; IC50 [16]: 12 nM |
| C=CC(=O)Nc1cccc(-c2c[nH]c3ncnc(Nc4ccc(OCc5ccccn5)c(Cl)c4)c23)c1 |  |  | IC50 [1]: 17 nM |
| C=CC(=O)N1CCC[C@@H](n2nc(C(=O)Nc3ccc(CC(=O)N(C)C)c(C)c3C)c3c(N)ncnc32)C1 | 16.4 | 65 |  |
| COCCOc1cc2ncnc(Nc3ccc(Oc4cccc5ccc(C)nc45)c(C)c3)c2cc1OCCOC | 12 | 12 |  |
| CCOc1cc2ncc(C#N)c(Nc3ccc(OCc4ccccn4)c(Cl)c3)c2cc1NC(=O)/C=C/[C@H]1CCCN1C [PYROTINIB] | 38 |  |  |
| Cc1cc(Nc2ncnc3ccc(NC4=NC(C)(C)CO4)cc23)ccc1Oc1ccn2ncnc2c1 [TUCATINIB] | 8 | > 500 |  |
| C=CC(=O)NC1CCN(c2ncc3ncnc(Nc4ccc(Oc5ccc6c(c5)ncn6C)c(C)c4)c3n2)CC1 [ZONGERTINIB] | 13 |  |  |
| Cc1cc(Nc2ncnc3ccc(NC(=O)/C=C/[C@H]4CCCN4C)cc23)ccc1Oc1ccn2ncnc2c1 |  |  | IC50 [17]: 2.4 nM; IC50 [18]: 2.65 nM; half-life [19]: > 116 h |
| COc1cc2c(Nc3ccc(Oc4ccn5ncnc5c4)c(C)c3)ncnc2cc1OCCCN1CCN(CCCCCCCNc2ccc3c(c2)C(=O)N(C2CCC(=O)NC2=O)C3=O)CC1 (centres undefined) | 0.04 |  |  |
| C=CC(=O)N1CCC[C@@H](n2nc(-c3ccc(OCc4cccc(C)n4)cc3)c3c(N)ncnc32)C1 | 16.4 | 0.12 |  |
| C=CC(=O)N1CCN(c2ncc3ncnc(Nc4ccc(Oc5ccn6ncnc6c5)c(C)c4)c3n2)CC1 |  |  | IC50 [1]: 5.8 nM; IC50 [2]: 2200 nM; IC50 [3]: 5.8 nM |
